Where “and” joins values, the source holds several entries; their conditions need not be identical. Identical values can stand only once. Like-named read-outs stand apart in the source and are kept apart here.
How the values were obtained:
Y1R [1] = target: Y1R; design: method as in ref 24,25,27,30-38 (per cell); conditions: different expression systems, sodium-containing or sodium-free buffers, ref 24,25,27,30-38 (per cell); cited from earlier work
Nluc-Y1R(Y192) [2] = target: T1, Nluc-Y1R(Y192) (Homo sapiens, UniProt P25929); assay: BRET competition binding with fluorescent ligand 1; conditions: competition with 1 (c = 0.5 nM, Kd = 0.24 nM), intact HEK293T cells, mean ± SEM
T1 sequence (P25929 1-384): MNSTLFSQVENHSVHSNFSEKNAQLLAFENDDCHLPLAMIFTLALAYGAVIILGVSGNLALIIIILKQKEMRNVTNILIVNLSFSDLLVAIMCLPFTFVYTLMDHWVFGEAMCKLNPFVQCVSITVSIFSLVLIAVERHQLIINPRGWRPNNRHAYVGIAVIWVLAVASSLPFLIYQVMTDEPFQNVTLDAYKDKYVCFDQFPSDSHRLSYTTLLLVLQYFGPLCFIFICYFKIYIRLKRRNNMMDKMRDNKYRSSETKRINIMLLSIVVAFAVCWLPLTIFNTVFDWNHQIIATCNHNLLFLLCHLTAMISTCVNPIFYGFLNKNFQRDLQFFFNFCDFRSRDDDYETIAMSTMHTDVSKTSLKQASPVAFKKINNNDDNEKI
Procedure: (§1) BRET binding experiments were essentially performed as described[18] with the following minor modifications: 1 day prior to the experiment, HEK293T cells stably expressing the respective Nluc-receptor fusion construct were detached from the cell culture dish by trypsinization, centrifuged (500g, 5 min), and resuspended in L-15 with 5% FCS and 10 mM HEPES (pH 7.4). […] Subsequently, 10 μL of assay buffer containing the investigated fluorescent ligand was added to all wells. After an incubation period of 60 min at 27 °C, 10 μL of the Nluc substrate furimazine (prediluted 1:1000 before use) was added and after an equilibration time of 5 min inside the plate reader (prewarmed to 27 °C), the measurement was started.
(§2) A positive control containing only fluorescent ligand and no competitor (100% value), as well as a negative control (buffer, 0% value), was included in every experiment.
(§3) For competition binding experiments, the data were normalized to the BRET ratio obtained for the negative control (buffer, 0% value) and the BRET ratio obtained for wells containing fluorescent ligand, but no competitor (100% value). […] The obtained pIC50 values were subsequently transformed into pKi values by means of the Cheng–Prusoff equation (logarithmic form),[80] for which means and SEMs were calculated.

Nluc-Y1R(Q291) [3] = target: T2, Nluc-Y1R(Q291) (Homo sapiens, UniProt P25929); assay: BRET competition binding with fluorescent ligand 1; conditions: competition with 1 (c = 0.5 nM, Kd = 0.29 nM), HEK293T cells; mean ± SEM
T2 sequence (P25929 1-384): T1 sequence (P25929 1-384)
Procedure: as §1, §2, §3

Nluc-M1R(G176) [4] = target: T3, Nluc-M1R(G176) (Homo sapiens, UniProt P11229); assay: biochemical; type: binding
T3 sequence (P11229 1-460): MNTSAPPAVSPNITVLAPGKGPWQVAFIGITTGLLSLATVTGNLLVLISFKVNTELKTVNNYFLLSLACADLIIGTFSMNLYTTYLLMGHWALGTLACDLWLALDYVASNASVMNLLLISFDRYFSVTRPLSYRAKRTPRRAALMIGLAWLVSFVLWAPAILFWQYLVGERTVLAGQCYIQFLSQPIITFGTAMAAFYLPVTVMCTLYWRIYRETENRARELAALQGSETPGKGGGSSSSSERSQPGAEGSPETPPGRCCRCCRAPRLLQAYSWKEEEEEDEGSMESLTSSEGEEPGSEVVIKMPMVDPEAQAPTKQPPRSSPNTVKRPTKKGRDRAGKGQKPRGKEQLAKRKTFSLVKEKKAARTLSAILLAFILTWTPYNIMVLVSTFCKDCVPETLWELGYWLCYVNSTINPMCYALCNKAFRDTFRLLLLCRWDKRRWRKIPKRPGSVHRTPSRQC
Procedure: BRET binding experiments were essentially performed as described[18] with the following minor modifications: 1 day prior to the experiment, HEK293T cells stably expressing the respective Nluc-receptor fusion construct were detached from the cell culture dish by trypsinization, centrifuged (500g, 5 min), and resuspended in L-15 with 5% FCS and 10 mM HEPES (pH 7.4). […] Subsequently, 10 μL of assay buffer containing the investigated fluorescent ligand was added to all wells.
as §2, §3

M1R = conditions: cited from earlier work
AT1R = target: AT1R; design: method as in ref 41,44,46-49 (per cell); conditions: different expression systems, ref 41,44,46-49 (per cell); cited from earlier work
Nluc-AT1R(S186) = target: T4, Nluc-AT1R(S186) (Homo sapiens, UniProt P30556); assay: BRET competition binding with fluorescent ligand 3
T4 sequence (P30556 1-359): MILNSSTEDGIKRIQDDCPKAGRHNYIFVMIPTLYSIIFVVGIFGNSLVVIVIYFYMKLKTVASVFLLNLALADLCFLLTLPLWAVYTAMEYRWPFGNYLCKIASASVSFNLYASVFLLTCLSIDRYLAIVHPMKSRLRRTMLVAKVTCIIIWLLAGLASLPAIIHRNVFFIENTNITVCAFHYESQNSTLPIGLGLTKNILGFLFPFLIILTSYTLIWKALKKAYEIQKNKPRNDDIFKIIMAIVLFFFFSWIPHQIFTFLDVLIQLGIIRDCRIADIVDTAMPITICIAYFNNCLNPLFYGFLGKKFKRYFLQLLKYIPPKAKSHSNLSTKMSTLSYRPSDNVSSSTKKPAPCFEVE
Procedure: as §1
A positive control containing only fluorescent ligand and no competitor (100% value), as well as a negative control (buffer, 0% value), was included in every experiment. […]
as §3

Nluc-Y1R(Y192) [5] = target: T1, Nluc-Y1R(Y192); assay: BRET saturation binding at intact HEK293T cells
Procedure: as §1
(§4) For BRET experiments, the “raw BRET ratio” was calculated by dividing the emission detected through the 610 LP filter (acceptor) by the emission detected through the 460 BP filter (donor). A baseline correction was performed for all values by subtracting the BRET ratio of a buffer control, yielding “corrected BRET ratios”. […] The obtained Kd values were transformed into pKd values, for which means and SEMs were calculated.

Nluc-Y1R(Δ1–31) = target: T5, Nluc-Y1R(Δ1–31) (Homo sapiens, UniProt P25929); assay: BRET saturation binding at intact HEK293T cells; conditions: mean ± SEM, read-out: pKd (BRET) (converted)
T5 construct: fused Nluc to Asp32 of the Y1R via a short linker; expressed in transfected cells; host or cells: HEK293T, stably transfected (pcDNA3.1)
T5 sequence (P25929 32-384): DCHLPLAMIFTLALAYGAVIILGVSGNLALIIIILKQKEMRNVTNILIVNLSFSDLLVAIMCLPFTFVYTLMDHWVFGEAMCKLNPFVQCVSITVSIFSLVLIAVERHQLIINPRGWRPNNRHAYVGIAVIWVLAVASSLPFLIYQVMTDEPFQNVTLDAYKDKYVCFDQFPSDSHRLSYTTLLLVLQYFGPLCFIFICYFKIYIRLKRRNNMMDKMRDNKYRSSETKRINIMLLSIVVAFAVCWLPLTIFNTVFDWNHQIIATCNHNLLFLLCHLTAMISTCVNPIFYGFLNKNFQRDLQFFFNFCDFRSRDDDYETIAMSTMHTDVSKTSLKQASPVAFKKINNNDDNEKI
Procedure: as §1, §4

wild-type Y1R = target: wild-type Y1R; design: method as in PMID 35263541; conditions: cited from earlier work
Nluc-Y1R(Q291) [6] = target: T2, Nluc-Y1R(Q291); assay: BRET saturation binding at intact HEK293T cells
Procedure: as §1, §4

Nluc-Y1R(Y192) [7] = target: T1, Nluc-Y1R(Y192); assay: Kinetic BRET binding (association and dissociation); conditions: 1 c = 0.5 nM
Nluc-Y1R(Nterm) = target: T6, Nluc-Y1R(Nterm) (Homo sapiens, UniProt P25929); assay: BRET saturation binding at intact HEK293T cells
T6 construct: expressed in transfected cells; host or cells: HEK293T, stably transfected (pcDNA3.1)
T6 sequence (P25929 1-384): T1 sequence (P25929 1-384)
Procedure: as §1, §4

Nluc-M1R(G176) [8] = target: T3, Nluc-M1R(G176); assay: Kinetic BRET binding (association and dissociation)
Nluc-M1R(G176) [9] = target: T3, Nluc-M1R(G176); assay: BRET saturation binding at intact HEK293T cells
Procedure: as §1, §4

Nluc-M1R(Nterm) = target: T7, Nluc-M1R(Nterm) (Homo sapiens, UniProt P11229); assay: BRET saturation binding at intact HEK293T cells; conditions: mean ± SEM, read-out: pKd (BRET) (converted)
T7 construct: expressed in transfected cells; host or cells: HEK293T, stably transfected (pcDNA3.1)
T7 sequence (P11229 1-460): T3 sequence (P11229 1-460)
Procedure: as §1, §4

NTS1R = target: NTS1R; design: method as in ref 42,44,50-53 (per cell); conditions: different expression systems, ref 42,44,50-53 (per cell); cited from earlier work
Nluc-NTS1R(T227) = assay: BRET competition binding with fluorescent ligand 2; design: species or system human; conditions: competition with 2 (c = 5 nM, Kd = 4.82 nM), intact HEK293T cells, mean ± SEM
Nluc-NTS1R(T227), sequence (P30989 1-227 limits assumed): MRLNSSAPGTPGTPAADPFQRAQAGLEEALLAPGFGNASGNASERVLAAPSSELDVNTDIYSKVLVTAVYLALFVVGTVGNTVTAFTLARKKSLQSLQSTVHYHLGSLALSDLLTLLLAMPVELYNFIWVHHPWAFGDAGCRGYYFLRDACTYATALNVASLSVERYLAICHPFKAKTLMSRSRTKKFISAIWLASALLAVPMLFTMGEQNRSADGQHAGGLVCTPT
Nluc-NTS1R(T227), sequence (P30989 228-418 limits assumed): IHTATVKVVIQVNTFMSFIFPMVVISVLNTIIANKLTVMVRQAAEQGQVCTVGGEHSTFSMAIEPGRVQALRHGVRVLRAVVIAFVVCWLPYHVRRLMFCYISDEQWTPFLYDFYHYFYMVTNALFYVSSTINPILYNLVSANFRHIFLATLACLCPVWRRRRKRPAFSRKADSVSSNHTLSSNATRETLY
Procedure: as §1, §2, §3

Nluc-NTS1R(T227) (human) [10] = target: Nluc-NTS1R(T227) (human) (UniProt P30989); assay: FRET or BRET; BRET saturation binding of the fluorescent ligand at intact HEK293T cells stably expressing the Nluc-receptor construct; 60 min, 27 °C; L-15, 10 mM HEPES pH 7.4, 2% BSA; nonspecific binding with 100-fold excess of SR142948 or candesartan
Nluc-NTS1R(T227) (human), sequence (P30989 whole entry): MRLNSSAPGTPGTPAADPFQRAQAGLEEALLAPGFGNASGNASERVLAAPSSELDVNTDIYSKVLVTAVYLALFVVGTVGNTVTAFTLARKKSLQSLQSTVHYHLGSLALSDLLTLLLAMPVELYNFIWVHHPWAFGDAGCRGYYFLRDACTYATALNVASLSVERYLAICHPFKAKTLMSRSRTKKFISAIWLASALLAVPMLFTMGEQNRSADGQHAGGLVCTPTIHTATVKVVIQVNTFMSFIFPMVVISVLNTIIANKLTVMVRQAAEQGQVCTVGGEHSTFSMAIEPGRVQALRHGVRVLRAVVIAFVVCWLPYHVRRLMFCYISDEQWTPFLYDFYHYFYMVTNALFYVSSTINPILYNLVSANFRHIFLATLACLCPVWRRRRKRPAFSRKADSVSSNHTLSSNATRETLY

Nluc-NTS1R(T227) (human) [11] = target: Nluc-NTS1R(T227) (human) (UniProt P30989); assay: FRET or BRET; kinetic BRET binding (association then dissociation) at intact HEK293T cells, 27 °C; fluorescent ligand 10 nM; dissociation started with SR142948 or candesartan (2.5 μM)
Y1R [12] = target: Y1R; design: method as in PMID 35263541; conditions: 1 as the fluorescent probe; cited from earlier work
[13] = intact HEK293T cells, mean ± SEM, read-out: pKd (BRET) (converted)
[14] = value used for Cheng–Prusoff, read-out: Kd
[15] = intact HEK293T cells, mean ± SEM

NC(=O)NCc1ccc(CNC(=O)[C@@H](CCCN=C(N)N)NC(=O)C(c2ccccc2)c2ccccc2)cc1 [BIBO3304]
reference values (literature) (Y1R [1]): 8.76–9.60[27],[30],[31]

NC(N)=NCCC[C@@H](NC(=O)C(c1ccccc1)c1ccccc1)C(=O)NCc1ccc(O)cc1 [BIBP3226]
reference values (literature) (Y1R [1]): 8.14–9.00[25],[27],[30],[33],[34]

CC(C)c1ccccc1S(=O)(=O)c1cc(N)c2ncccc2c1[N+](=O)[O-] [PD160170]
pKi (BRET) (Nluc-Y1R(Y192) [2]): 7.45 ± 0.05 | reference values (literature) (Y1R [1]): 7.30 and 7.32

CCC(=O)NCCNC(=O)N=C(N)NCCC[C@@H](NC(=O)C(c1ccccc1)c1ccccc1)C(=O)NCc1ccc(O)cc1 [UR-MK299]
pKi (BRET) (Nluc-Y1R(Y192) [2]): 10.20 ± 0.06 | reference values (literature) (Y1R [1]): 10.11[25] | pKi (BRET, Nluc-Y1R(Q291)) (Nluc-Y1R(Q291) [3]): 10.06 ± 0.07

C=CC[N@@+]12CC[C@@]34c5ccccc5N5/C=C6/[C@H]7C[C@H]8[C@@]9(CC[N@@+]8(CC=C)C/C7=C/CO)c7ccccc7N(/C=C(/[C@@H](C[C@@H]31)/C(=C\CO)C2)[C@H]54)[C@@H]69 [alcuronium, Alcuronium]
displacement of fluorescent ligand 4 (Nluc-M1R(G176) [4]; Nluc-M1R(G176)): displace the dualsteric ligand 4 completely | reference values (literature) (M1R): 5.01,[57] 5.25[55]

CCOc1nc2cccc(C(=O)O)c2n1Cc1ccc(-c2ccccc2-c2nnn[nH]2)cc1 [candesartan, Candesartan]
reference values (literature) (AT1R): 8.46–10.28[41],[44],[46]−[48] | Ki (Nluc-AT1R(S186)): 1.51 nM

CCC(=O)NCCNC(=O)N=C(N)NCCC[C@@H](NC(=O)[C@@H](c1ccccc1)c1cccc(OCCCC[n+]2c(C)cc(/C=C/C=C/c3ccc(N(C)C)cc3)cc2C)c1)C(=O)NCc1ccc(O)cc1 [compound 1]
Kd (Nluc-Y1R(Y192) [5]; [13]): 0.24 nM | Kd (Nluc-Y1R(Y192) [5]; [14]): 0.24 nM | Kd (Nluc-Y1R(Δ1–31)): 2.88 nM | pKi (radioligand competition binding) (wild-type Y1R): 9.95 | Kd (Nluc-Y1R(Q291) [6]; [13]): 0.288 nM | Kd (Nluc-Y1R(Q291) [6]; [14]): 0.29 nM | time of association (Nluc-Y1R(Y192) [7]): ≤ 60 min | koff (Nluc-Y1R(Y192) [7]; [15]): 6.67e-05 s⁻¹ | kon (Nluc-Y1R(Y192) [7]; [15]): 2.38e+06 M⁻¹ s⁻¹ | fraction still bound after initiation of dissociation (Nluc-Y1R(Y192) [7]; after 4 h, dissociation by BIBO3304): ≈ 40% | Kd (Nluc-Y1R(Y192) [7]; kinetically derived, mean ± SEM, read-out: pKd kinetic (converted)): 0.024 nM | specific signal in BRET saturation binding (Nluc-Y1R(Nterm)): no specific signal was detectable

Cc1cc(/C=C/C=C/c2ccc(N(C)C)cc2)cc(C)[n+]1CCNC(=O)CCc1cn(CCCCC2CCN(CC(=O)N3c4ccccc4NC(=O)c4ccccc43)CC2)cn1 [compound 4]
koff (Nluc-M1R(G176) [8]): 0.00297 s⁻¹ | kon (Nluc-M1R(G176) [8]): 367000 M⁻¹ s⁻¹ | Kd (Nluc-M1R(G176) [8]; kinetically derived, Nluc-M1R(G176), 4 c = 5 nM, mean ± SEM, read-out: pKd kinetic (converted)): 9.12 nM | Kd (Nluc-M1R(G176) [9]; [13]): 2.24 nM | Kd (Nluc-M1R(G176) [9]; [14]): 2.26 nM | Kd (Nluc-M1R(Nterm)): 6.03 nM

C[N+](C)(C)CC#CCOC1=NOCC1 [iperoxo]
pKi (BRET) (Nluc-M1R(G176) [4]): 7.00 ± 0.07 | reference values (literature) (M1R): 6.46[56]

CCCCc1nc(Cl)c(CO)n1Cc1ccc(-c2ccccc2-c2nn[nH]n2)cc1 [losartan]
reference values (literature) (AT1R): 7.23–8.00[41],[44],[46],[48],[49]

O=C1CCCN1CC#CCN1CCCC1 [oxotremorine]
Ki (Nluc-M1R(G176) [4]): 1000 nM | reference values (literature) (M1R): 5.48–5.86[55],[57],[59]

BMS193885
pKi (BRET) (Nluc-Y1R(Y192) [2]): 8.23 ± 0.01 | reference values (literature) (Y1R [1]): 7.66–8.48[27],[35],[36]

Neurotensin(8–13) [NT(8–13)]
reference values (literature) (NTS1R): 8.27–9.85[42],[44],[50]−[52]

SR142948
reference values (literature) (NTS1R): 8.05–8.99[42],[44],[50],[53] | pKi (BRET) (Nluc-NTS1R(T227)): 7.93 ± 0.12

UR-AP178 (peptide)
pKd (Nluc-NTS1R(T227) (human) [10]): 8.32 | koff (Nluc-NTS1R(T227) (human) [11]): 0.0138 s⁻¹ | kon (Nluc-NTS1R(T227) (human) [11]): 2e+06 M⁻¹ s⁻¹ | pKd kinetic (Nluc-NTS1R(T227) (human) [11]): 8.16

angiotensin II
reference values (literature) (AT1R): 7.61–9.62[44],[46]−[49] | time until pIC50 value stabilized (Nluc-AT1R(S186); kinetic BRET competition binding with 3 at Nluc-AT1R(S186)): ≤ 45 min

porcine neuropeptide Y [pNPY]
reference values (literature) (Y1R [1]): 7.58–9.75[24],[25],[27],[30]−[32] | pKi (flow cytometry-based competition binding) (Y1R [12]): 7.58
